Drawing on patent US20230312528A1, “2-OXO-IMIDAZOLIDINE-4-CARBOXAMIDES AS NAV1.8 INHIBITORS” (Merck Sharp & Dohme LLC, priority 2020, published 2023), this text covers IC50 for nine compounds.

For this test, the target named is human NaV1.8 (Homo sapiens (Human), UniProt Q9Y5Y9). Kind of test: Nav1.8 Qube automated patch-clamp assay. The class given is cell-based. The conditions noted are these: human NaV1.8 stably expressed in HEK 293 cells; automated 384-well patch-clamp; resting or inactivated state not specified. A digest of the protocol: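 Human NaV1.8 in HEK293 cells, automated whole-cell patch clamp at room temperature: 1 Hz train of ten 20 ms pulses to 10 mV from −90 mV, repolarization to −67 mV. First- and tenth-pulse peak currents gave resting and inactivated-state IC50 values via Hill fits.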
Chain of human NaV1.8 (Q9Y5Y9 whole entry): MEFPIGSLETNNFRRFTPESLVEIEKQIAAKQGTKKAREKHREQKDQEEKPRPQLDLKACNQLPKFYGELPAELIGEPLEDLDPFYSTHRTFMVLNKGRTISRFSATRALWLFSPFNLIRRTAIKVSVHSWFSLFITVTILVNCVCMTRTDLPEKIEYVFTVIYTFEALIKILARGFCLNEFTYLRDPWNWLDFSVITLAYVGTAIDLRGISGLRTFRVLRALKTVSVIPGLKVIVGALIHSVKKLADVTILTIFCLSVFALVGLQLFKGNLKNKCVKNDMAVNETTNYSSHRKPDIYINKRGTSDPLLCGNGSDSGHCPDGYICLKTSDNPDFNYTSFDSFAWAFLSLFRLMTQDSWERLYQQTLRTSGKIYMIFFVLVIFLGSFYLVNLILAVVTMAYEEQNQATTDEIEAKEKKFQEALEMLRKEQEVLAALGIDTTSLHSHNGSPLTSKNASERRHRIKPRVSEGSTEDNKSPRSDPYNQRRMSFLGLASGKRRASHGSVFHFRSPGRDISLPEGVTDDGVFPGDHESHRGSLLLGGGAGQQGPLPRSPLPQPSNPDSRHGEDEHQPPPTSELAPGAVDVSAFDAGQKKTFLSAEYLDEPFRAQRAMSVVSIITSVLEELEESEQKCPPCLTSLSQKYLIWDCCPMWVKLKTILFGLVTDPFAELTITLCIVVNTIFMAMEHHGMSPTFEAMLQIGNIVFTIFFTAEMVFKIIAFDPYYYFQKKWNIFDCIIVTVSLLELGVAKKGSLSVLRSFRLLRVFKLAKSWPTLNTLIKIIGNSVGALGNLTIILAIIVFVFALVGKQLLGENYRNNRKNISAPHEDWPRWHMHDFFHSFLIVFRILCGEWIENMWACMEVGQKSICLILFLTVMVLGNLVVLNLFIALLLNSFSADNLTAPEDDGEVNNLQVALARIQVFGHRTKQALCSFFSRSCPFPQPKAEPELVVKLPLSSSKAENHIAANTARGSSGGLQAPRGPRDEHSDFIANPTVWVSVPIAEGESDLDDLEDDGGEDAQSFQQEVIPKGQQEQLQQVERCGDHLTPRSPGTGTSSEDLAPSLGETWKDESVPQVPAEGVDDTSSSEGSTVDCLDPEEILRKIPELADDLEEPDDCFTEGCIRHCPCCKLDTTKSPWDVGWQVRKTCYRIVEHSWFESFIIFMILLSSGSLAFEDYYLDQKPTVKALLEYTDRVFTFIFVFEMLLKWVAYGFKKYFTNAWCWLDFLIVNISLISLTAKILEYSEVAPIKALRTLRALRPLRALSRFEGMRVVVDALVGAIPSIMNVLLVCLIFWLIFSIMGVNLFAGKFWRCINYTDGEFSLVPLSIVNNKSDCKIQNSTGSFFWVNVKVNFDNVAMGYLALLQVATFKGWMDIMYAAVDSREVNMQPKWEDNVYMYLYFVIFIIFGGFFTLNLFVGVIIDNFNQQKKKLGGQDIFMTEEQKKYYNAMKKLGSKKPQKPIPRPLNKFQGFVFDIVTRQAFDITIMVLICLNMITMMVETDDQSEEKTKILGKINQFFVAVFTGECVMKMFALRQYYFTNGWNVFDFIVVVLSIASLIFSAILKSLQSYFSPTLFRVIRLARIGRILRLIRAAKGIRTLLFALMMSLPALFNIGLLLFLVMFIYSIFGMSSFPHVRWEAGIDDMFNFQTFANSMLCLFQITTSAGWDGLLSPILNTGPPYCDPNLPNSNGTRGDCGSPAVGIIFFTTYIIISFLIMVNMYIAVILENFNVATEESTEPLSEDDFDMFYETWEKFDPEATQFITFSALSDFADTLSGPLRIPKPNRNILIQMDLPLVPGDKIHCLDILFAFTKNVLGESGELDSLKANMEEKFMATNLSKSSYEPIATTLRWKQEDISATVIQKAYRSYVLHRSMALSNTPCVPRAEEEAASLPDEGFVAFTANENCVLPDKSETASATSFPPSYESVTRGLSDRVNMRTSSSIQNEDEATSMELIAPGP
In general terms: The patch-clamp technique gives a direct electrical read-out from membranes.
The term IC50 denotes the concentration at which inhibition is half-maximal. Low values mean greater potency, high ones weaker potency. The compound `O=C1NC[C@@H](C(=O)NC(c2ccc(F)c(C(F)F)n2)c2ccc(F)c(Cl)c2F)N1` (single isomer, unassigned) [Example 63B, (S)-N-((R or S)-(3-chloro-2,4-difluorophenyl)(6-(difluoromethyl)-5-fluoropyridin-2-yl)methyl)-2-oxoimidazolidine-4-carboxamide] returned an IC50 of 16 nM. To `O=C1NC[C@@H](C(=O)NC(c2cnc(C(F)(F)F)c(Cl)c2)c2ccc(F)c(C(F)(F)F)n2)N1` (single isomer, unassigned) [Example 14A, (4S)-N-{[(R or S)-5-chloro-6-(trifluoro-methyl)pyridin-3-yl][5-fluoro-6-(trifluoro-methyl)pyridin-2-yl]methyl}-2-oxoimidazolidine-4-carboxamide] belongs 2.4 nM; to `CC1(C)CC(C(NC(=O)[C@@H]2CNC(=O)N2)c2ccc(F)c(Cl)c2F)C1` (single isomer, unassigned) [Example 30B, (4S)-N-[(R or S)-(3-chloro-2,4-di-fluorophenyl)(3,3-dimethylcyclobutyl)meth-yl]-2-oxoimidazolidine-4-carboxamide], 458 nM. Next, `O=C1NC[C@@H](C(=O)NC(c2ccc(F)c(Cl)c2)c2ccc(F)c(Cl)c2)N1` [Example 61, (S)-N-(bis(3-chloro-4-fluorophenyl)methyl)-2-oxoimidazolidine-4-carboxamide]: 0.7 nM.

With `O=C1NC[C@@H](C(=O)NC(c2ccc(F)c(Cl)c2F)C2CCCCN2CC(F)(F)F)N1` (single isomer, unassigned) [Example 58C, (S)-N-((R or S)-(3-chloro-2,4-difluorophenyl) ((R or S)-1-(2,2,2-trifluoroethyl)piperidin-2-yl)methyl)-2-oxoimidazolidine-4-carboxamide], the IC50 turned out to be 130 nM. To `CC(N1CC(C)(C(NC(=O)[C@@H]2CNC(=O)N2)c2ccc(F)c(Cl)c2F)C1)C(F)(F)F` (single isomer, unassigned) [Example 65C, (S)—N—((R or S)-(3-chloro-2,4-difluorophenyl)(3-methyl-1-((R or S)-1,1,1-trifluoropropan-2-yl)azetidin-3-yl)methyl)-2-oxoimidazolidine-4-carboxamide] belongs 309 nM; to `O=C1NC[C@@H](C(=O)NC(c2ccc(F)c(Cl)c2)c2ccc(Cl)c(C(F)(F)F)n2)N1` (single isomer, unassigned) [Example 62A, (S)-N-((R or S)-(3-chloro-4-fluorophenyl)(5-chloro-6-(trifluoromethyl)pyridin-2-yl)methyl)-2-oxoimidazolidine-4-carboxamide], 8 nM; to `O=C1NC[C@@H](C(=O)NC(c2ccc(F)c(Cl)c2F)C2COC(C(F)(F)F)C2)N1` (single isomer, unassigned) [Example 79D, (S)-N-((R or S)-(3-chloro-2,4-difluoro-phenyl)((cis or trans)-5-(trifluoromethyl)tetrahydrofuran-3-yl)methyl)-2-oxoimidazolidine-4-carboxamide], 3680 nM. `O=C1NC[C@@H](C(=O)NC(c2ccc(F)c(Cl)c2F)C2CCCCN2CC(F)(F)F)N1` (single isomer, unassigned) [Example 58B, (S)-N-((R or S)-(3-chloro-2,4-difluorophenyl) ((R or S)-1-(2,2,2-trifluoroethyl)piperidin-2-yl)methyl)-2-oxoimidazolidine-4-carboxamide] displayed an IC50 of 35 nM.
